According to article PMC8704648 (Pharmaceutics, 2021):

Settings: TG, oxidizing atmosphere

Structure (SMILES): COc1ccc2cc([C@H](C)C(=O)O)ccc2c1 [Naproxen, (+)-(S)-2-(6-Methoxynaphthalen-2-yl)propanoic acid]
- Tonset, the onset of the thermal degradation: 249.9 °C
